# Tests used:
# [1] = test system: MDA-MB-231; assay: XTT cell viability assay, MDA-MB-231; type: cell-based; settings: Homo sapiens, XTT assay (48 h), standard deviation of 10%, read-out: EC50 (μM) Breast MDA-MB-231
# Description: (§1) Fifty microliters of sodium 3′-[1-phenylaminocarbonyl)-3,4-tetrazolium]-bis(4-methoxy-6-nitro) benzene sulfonic acid hydrate (XTT) reagent was added to each well. The assay is based on the cleavage of the yellow tetrazolium salt XTT to form an orange formazan dye by metabolically active cells. The absorbance of the formazan product, reflecting cell viability, was measured at 490 nm. Each assay was performed in quadruplicate.
# (§2) Compounds #1-#14 have been assayed as potential anti-proliferative agents against a panel of human breast head and neck, and kidney tumor cells and hematological malignancies, selected on the basis of their aggressiveness (e.g. incurable triple-negative breast cancer cells: MDA-MB-231; kidney ccRCC cells: RCC4, A498 and 786-O and 786R; head and neck cancer cells: CAL33, CAL33RR, CAL27, and CAL27RR; acute myeloid cell lines: OCI-AML2, OCI-AML3, MolM13, and MolM14; myelodysplastic cell line: SM1; and chronic myeloid cell line: CML). All these cell lines share as common denominator the expression of CXCR1 and CXCR2. The EC50 values have been measured by a XTT colorimetric assay, and compared to those of SB-225002, used as a reference; the results are listed in Table 1.
# [2] = test system: A498; assay: XTT cell viability assay, A498; type: cell-based, human; settings: Homo sapiens, A498; XTT assay (48 h); standard deviation of 10%; read-out: EC50 (μM) Kidney A498
# Description: as §1, §2
# [3] = test system: RCC4; assay: XTT cell viability assay, RCC4; type: cell-based; settings: Homo sapiens, XTT assay (48 h), standard deviation of 10%, read-out: EC50 (μM) Kidney RCC4
# Description: as §1, §2
# [4] = test system: 786-O; assay: XTT cell viability assay, 786-O; type: cell-based, human; settings: Homo sapiens, 786-0; XTT assay (48 h); standard deviation of 10%; read-out: EC50 (μM) Kidney 786-O
# Description: (§3) A, B: Naive (786-O, A), and sunitinib-resistant (786-R, B) 786-O cells, were treated with compound #1 or sunitinib (1 to 10 μM) for 48 hr. Cell viability was measured by XTT assays;
# (§4) D, E: 786-O (D), 786-R (E), were treated with 2.5 μM compound #1 or 2.5 μM sunitinib for 24 h to 96 h. The cells metabolism was measured by XTT assay;
# as §1, §2
# [5] = test system: OCI-AML2; assay: XTT cell viability assay, OCI-AML2; type: cell-based, human; settings: Homo sapiens, OCI-AML2; XTT assay (48 h); standard deviation of 10%; read-out: EC50 (μM) AML OCI-AML2
# Description: as §1, §2
# [6] = test system: OCI-AML3; assay: XTT cell viability assay, OCI-AML3; type: cell-based, human; settings: Homo sapiens, OCI-AML-3; XTT assay (48 h); standard deviation of 10%
# Description: as §1, §2
# [7] = test system: MolM13; assay: XTT cell viability assay, MolM13; type: cell-based, human; settings: Homo sapiens, MOLM-13; XTT assay (48 h); standard deviation of 10%; read-out: EC50 (μM) AML MolM13
# Description: as §1, §2
# [8] = test system: MolM14; assay: XTT cell viability assay, MolM14; type: cell-based, human; settings: Homo sapiens, MOLM-14; XTT assay (48 h); standard deviation of 10%; read-out: EC50 (μM) AML MolM14
# Description: as §1, §2
# [9] = test system: SKM1; assay: XTT cell viability assay, SKM1; type: cell-based, human; settings: Homo sapiens, SKM-1; XTT assay (48 h); standard deviation of 10%; read-out: EC50 (μM) MDS SKM1
# Description: as §1, §2
# [10] = test system: K562; assay: XTT cell viability assay, K562; type: cell-based, human; settings: Homo sapiens, K562; XTT assay (48 h); standard deviation of 10%; read-out: EC50 (μM) CML K562
# Description: as §1, §2
# [11] = test system: macular degeneration model; assay: Macular degeneration model, clinical angiography; type: in vivo, mice; settings: Day 14, intraperitoneal 400 μg 3 times a week
# Description: FIG. 9: Evaluation of compounds #1 and #3 on macular degeneration. Clinical angiography at Day 14: Evaluation of the intensity of the lesion by a score from 0 to 3 (0: no leak; 1: light intensity; 2: moderate intensity; 3: immense marking) on mice treated with compounds #1 and #3. The intensities of the lesions were reported, each point corresponding to a lesion. Three lesions were performed on the eyes of each mouse; […]. • 4 groups of 12 mice were induced on the eyes by laser burnt as follows: • G1: vehicle; • G2 and G3: Compounds #1 and #3: intraperitoneal injection of 400 μg of product 3 times a week; and • G4: dexamethasone (2 mg/kg/day) orally. Clinical angiography at Day 14 on the 12 animals: evaluation of the intensity of the lesion by a score of 0 to 3 (0 no leak, 1=light intensity, 2=moderate intensity, 3=intense marking).
# [12] = test system: 786R; assay: XTT cell viability assay, 786R (sunitinib-resistant); type: cell-based, human; settings: Homo sapiens, 48 h, XTT assay (48 h); sunitinib-resistant; standard deviation of 10%; read-out: EC50 (μM) Kidney 786R
# Description: as §3, §4, §1, §2
# [13] = test system: malignant (ccRCC and hematological) cells; assay: FACS analysis of cell death markers (AV, PI), malignant cells; type: cell-based, human; settings: 5 μM, 48 h
# Description: (§5) FIG. 1: Observation by FACS analyses of early (Annexin AV) and late (Propidium Iodide, PI) apoptosis markers expressed by healthy and malignant cells after treatment with compounds #1 and #2 at 5 μM. CT: negative control.
# (§6) Apoptosis analysis: After stimulation, cells were washed with ice-cold PBS and were stained with the annexin-V-fluos staining kit (Roche, Meylan, France) according to the manufacturer's procedure. Fluorescence was measured by using the FL2 (AV) and FL3 (propidium iodide, PI) channels of a fluorescence-activated cell sorter apparatus (Calibur cytometer).
# (§7) To complete these XTT assays, malignant (ccRCC and hematological) and healthy (human fibroblasts FHN) cells have been grown with compounds #1 or #2, and after 48h the expression of cell death markers (AV and PI) has been quantified by FACS analyses (FIG. 1).
# [14] = test system: healthy human fibroblasts (FHN); assay: FACS analysis of cell death markers (AV, PI), healthy fibroblasts; type: cell-based; settings: 5 μM, 48 h
# Description: as §5, §6, §7
# [15] = test system: CXCL7-dependent HuVEC migration; assay: Boyden chamber migration assay, CXCL7-dependent; type: cell-based; settings: CXCL7 (50 ng/ml)
# Description: CXCL7 or VEGFA-stimulated chemotaxis assays were monitored using modified Boyden chambers containing polycarbonate membranes (8-μm pores, Transwell; Corning, Sigma). Cells were seeded on the upper side of the filters and chambers were placed on 24-well plates containing CXCL7 (50 ng/ml) or VEGFA (50 ng/ml). Cells were allowed to migrate for 24 hr at 37° C. in 5% CO2. Migratory cells on the lower membrane surface were fixed in 3% paraformaldehyde, stained with 0.1% crystal violet.
SMILES,EC50 [1],EC50 [2],EC50 [3],EC50 [4],EC50 [5],EC50 [6],EC50 [7],EC50 [8],EC50 [9],EC50 [10],"intensity of the lesion (score 0 to 3), clinical angiography [11]",EC50 [12],early (AV) and late (PI) apoptosis markers on malignant cells [13],apoptosis of healthy human fibroblasts (FHN) [14],reduction of HuVEC CXCL7-dependent motility (comparison) [15]
"CCOc1ccc2nc(NC(=O)Nc3ccccc3C)sc2c1 [Compound #3, 1-(6-ethoxybenzo[d]thiazol-2-yl)-3-(o-tolyl)urea]",12 µM,15 µM,> 25 µM,15 µM,15 µM,7 µM,15 µM,10 µM,15 µM,4 µM,significant effect,–,–,–,–
"O=C(Nc1nc2ccc([N+](=O)[O-])cc2s1)Nc1ccccc1Cl [Compound #2, 1-(2-chlorophenyl)-3-(6-nitrobenzo[d]thiazol-2-yl)urea]",8 µM,5 µM,7 µM,5 µM,10 µM,10 µM,5 µM,10 µM,10 µM,7 µM,–,8 µM,cytotoxic effect on malignant cells,no increased apoptosis over the control experiment,–
"Cc1c(F)cccc1NC(=O)Nc1ccc(Cl)c(S(=O)(=O)[C@H]2CCCNC2)c1O [danirixin, reference compound]",–,–,–,–,–,–,–,–,–,–,–,–,–,–,less efficient than compound #1

# — patent publication US20210380547A1, “UREA DERIVATIVES FOR TREATING AND/OR PREVENTING CANCER” (CENTRE NATIONAL DE LA RECHERCHE SCIENTIFIQUE, priority 2018, published 2021)
